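Five compound concentrations were applied to cells in 96-well plates for 48 hours; endpoints were derived by simple linear interpolation of the resulting dose-response curve. Abbreviation: GI50, concentration required for 50% inhibition of growth.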 Calls of active or inactive are those of the source. Rule as the data show it: active = GI50 up to about 1.1 µM and inactive = higher.
Tests used:
Experiment in all cases: DTP human tumour cell line panel, 48 h
OVCAR-5 = tested on: OVCAR-5
MOLT-4 = tested on: MOLT-4
HOP-62 = tested on: HOP-62
SNB-75 = tested on: SNB-75
COLO 205 = tested on: COLO 205
ACHN = tested on: ACHN
NCI-H460 = tested on: NCI-H460
MCF7 = tested on: MCF7
OVCAR-8 = tested on: OVCAR-8
K562 = tested on: K562
MDA-N = tested on: MDA-N
NCI-H23 = tested on: NCI-H23
UO-31 = tested on: UO-31
SK-MEL-5 = tested on: SK-MEL-5
DU-145 = tested on: DU-145
HCT-15 = tested on: HCT-15
NCI-H226 = tested on: NCI-H226
SW-620 = tested on: SW-620
OVCAR-4 = tested on: OVCAR-4

| SMILES | GI50 (OVCAR-5) | GI50 (MOLT-4) | GI50 (HOP-62) | GI50 (SNB-75) | GI50 (COLO 205) | GI50 (ACHN) | GI50 (NCI-H460) | GI50 (MCF7) | GI50 (OVCAR-8) | GI50 (K562) | GI50 (MDA-N) | GI50 (NCI-H23) | GI50 (UO-31) | GI50 (SK-MEL-5) | GI50 (DU-145) | GI50 (HCT-15) | GI50 (NCI-H226) | GI50 (SW-620) | GI50 (OVCAR-4) |
| --- | --- | --- | --- | --- | --- | --- | --- | --- | --- | --- | --- | --- | --- | --- | --- | --- | --- | --- | --- |
| C=C(C=O)c1c2c(nc3ccccc13)C(=O)c1ccccc1C2=O | 1.9 µM (inactive) | 0.282 µM (active) | 1.15 µM (inactive) | 1.14 µM (inactive) | 1.1 µM (active) | 0.434 µM (active) | 0.581 µM (active) | 0.429 µM (active) | 0.434 µM (active) | 0.391 µM (active) | 0.202 µM (active) | 0.481 µM (active) | 1.11 µM (active) | 0.162 µM (active) | 0.286 µM (active) | 0.298 µM | 0.966 µM (active) | 0.518 µM (active) | 1.77 µM (inactive) |
| CCOC(=O)Cc1nc2nn(Cc3ccccc3)cc2c(=O)[nH]1 | > 100 µM (inactive) | > 100 µM (inactive) | > 100 µM (inactive) | > 100 µM (inactive) | > 100 µM (inactive) | > 100 µM (inactive) | > 100 µM (inactive) | > 100 µM (inactive) | > 100 µM (inactive) | > 100 µM (inactive) | > 100 µM (inactive) | > 100 µM (inactive) | > 100 µM (inactive) | > 100 µM (inactive) | > 100 µM (inactive) | > 100 µM | > 100 µM (inactive) | > 100 µM (inactive) | > 100 µM (inactive) |
| CN(C)c1ccc(C2=C([O-])c3cc(-[n+]4ccccc4)ccc3C2=O)cc1 | > 100 µM (inactive) | > 100 µM (inactive) | > 100 µM (inactive) | > 100 µM (inactive) | > 100 µM (inactive) | > 100 µM (inactive) | > 100 µM (inactive) | > 100 µM (inactive) | > 100 µM (inactive) | > 100 µM (inactive) | > 100 µM (inactive) | > 100 µM (inactive) | > 100 µM (inactive) | > 100 µM (inactive) | > 100 µM (inactive) | > 100 µM | > 100 µM (inactive) | > 100 µM (inactive) | > 100 µM (inactive) |
| O=C(N/N=C/c1c(-c2ccccc2)no[n+]1[O-])N1CCOCC1 | > 100 µM (inactive) | 26.3 µM (inactive) | > 100 µM (inactive) | > 100 µM (inactive) | > 100 µM (inactive) | > 100 µM (inactive) | > 100 µM (inactive) | > 100 µM (inactive) | > 100 µM (inactive) | > 100 µM (inactive) | > 100 µM (inactive) | > 100 µM (inactive) | > 100 µM (inactive) | > 100 µM (inactive) | > 100 µM (inactive) | > 100 µM | > 100 µM (inactive) | > 100 µM (inactive) | > 100 µM (inactive) |
| O=C1C=C(Nc2cccnc2)c2ccccc2/C1=N/O | > 100 µM (inactive) | 15.7 µM (inactive) | 23 µM (inactive) | 5.69 µM (inactive) | 19.4 µM (inactive) | 23.2 µM (inactive) | 22.8 µM (inactive) | 21.6 µM (inactive) | 21.5 µM (inactive) | 24.7 µM (inactive) | 12.6 µM (inactive) | 19.7 µM (inactive) | 21 µM (inactive) | 4.67 µM (inactive) | 50.5 µM (inactive) | 15.2 µM | 58.7 µM (inactive) | 18.3 µM (inactive) | 19.6 µM (inactive) |
| CCn1c(=O)c2cn[nH]c2n(C)c1=O | > 100 µM (inactive) | > 100 µM (inactive) | > 100 µM (inactive) | > 100 µM (inactive) | > 100 µM (inactive) | > 100 µM (inactive) | > 100 µM (inactive) | > 100 µM (inactive) | > 100 µM (inactive) | > 100 µM (inactive) | > 100 µM (inactive) | > 100 µM (inactive) | > 100 µM (inactive) | > 100 µM (inactive) | > 100 µM (inactive) | > 100 µM | > 100 µM (inactive) | > 100 µM (inactive) | > 100 µM (inactive) |
| Nc1c(-c2ccc(Cl)c(Cl)c2)c2ccc([N+](=O)[O-])cc2c(=O)n1-c1nc2ccccc2s1 | 1.92 µM (inactive) | 1.12 µM (active) | 1.06 µM (active) | 1.07 µM (active) | 1.5 µM (inactive) | 0.448 µM (active) | 0.386 µM (active) | 0.401 µM (active) | 0.366 µM (active) | 0.367 µM (active) | 0.697 µM (active) | 0.266 µM (active) | 0.445 µM (active) | 0.328 µM (active) | 0.867 µM (active) | 0.46 µM | 0.586 µM (active) | 0.574 µM (active) | 1.19 µM (inactive) |
| Cc1n(Cc2ccccc2)c2c([n+]1C)C(=O)c1ccccc1C2=O | 0.167 µM (active) | 0.0421 µM (active) | 0.0407 µM (active) | 0.0736 µM (active) | < 0.01 µM (active) | 0.873 µM (active) | 0.108 µM (active) | 0.0158 µM (active) | 0.0431 µM (active) | 0.0366 µM (active) | 0.173 µM (active) | 0.0434 µM (active) | 4.57 µM (inactive) | 0.0211 µM (active) | 0.156 µM (active) | 2.56 µM | 0.237 µM (active) | 0.0455 µM (active) | 0.0401 µM (active) |
| Clc1ncnc2c1nc(C#Cc1ccccc1)n2C1CCCCO1 (stereo not given) | 2.42 µM (inactive) | 2.02 µM (inactive) | 2.38 µM (inactive) | 2.6 µM (inactive) | 1.62 µM (inactive) | 1.69 µM (inactive) | 3.14 µM (inactive) | 1.37 µM (inactive) | 3.3 µM (inactive) | 1.38 µM (inactive) | 1.94 µM (inactive) | 1.99 µM (inactive) | 1.93 µM (inactive) | 2.21 µM (inactive) | 1.47 µM (inactive) | 1.14 µM | 2.49 µM (inactive) | 1.86 µM (inactive) | 1.87 µM (inactive) |
| CNC(=S)N1CCN(C(C)=O)C1=S | > 100 µM (inactive) | 30.8 µM (inactive) | 70.5 µM (inactive) | 26.5 µM (inactive) | 97.5 µM (inactive) | > 100 µM (inactive) | 87.9 µM (inactive) | 42 µM (inactive) | 92.5 µM (inactive) | 54.2 µM (inactive) | 51.8 µM (inactive) | 27.7 µM (inactive) | 50.7 µM (inactive) | 71.4 µM (inactive) | > 100 µM (inactive) | 34.4 µM | 22.4 µM (inactive) | 86.5 µM (inactive) | 6.56 µM (inactive) |
| COc1cc2c(c(OC)c1OC)C(=O)c1c(O)cc(C)c(OC)c1C2=O | > 100 µM (inactive) | > 100 µM (inactive) | 50.7 µM (inactive) | > 100 µM (inactive) | > 100 µM (inactive) | 46 µM (inactive) | 63.1 µM (inactive) | > 100 µM (inactive) | > 100 µM (inactive) | > 10 µM (inactive) | > 100 µM (inactive) | > 100 µM (inactive) | 85.3 µM (inactive) | 39.4 µM (inactive) | > 100 µM (inactive) | > 100 µM | > 100 µM (inactive) | > 100 µM (inactive) | > 100 µM (inactive) |
| CSC(=S)Nc1cc(C)cc(C)n1 | > 31.6 µM (inactive) | > 31.6 µM (inactive) | > 100 µM (inactive) | > 10 µM (inactive) | > 31.6 µM (inactive) | > 31.6 µM (inactive) | > 31.6 µM (inactive) | > 31.6 µM (inactive) | > 31.6 µM (inactive) | > 31.6 µM (inactive) | > 31.6 µM (inactive) | > 31.6 µM (inactive) | > 31.6 µM (inactive) | > 66.4 µM (inactive) | > 31.6 µM (inactive) | > 31.6 µM | > 31.6 µM (inactive) | > 31.6 µM (inactive) | > 31.6 µM (inactive) |
| Cc1cc(=O)n2c3c(c4c(cc13)c(CN(C)C)cc(=O)n4C)OC2 | 37.9 µM (inactive) | 7.48 µM (inactive) | 15.2 µM (inactive) | 14.7 µM (inactive) | 11.7 µM (inactive) | 4.97 µM (inactive) | 4.46 µM (inactive) | 6.47 µM (inactive) | 9.1 µM (inactive) | 29.8 µM (inactive) | 27.8 µM (inactive) | 14 µM (inactive) | 8.04 µM (inactive) | 12.2 µM (inactive) | 20 µM (inactive) | 6.15 µM | 9.04 µM (inactive) | 9.98 µM (inactive) | 9.27 µM (inactive) |
| CN(C)CCCc1c[nH]c2ccccc12 | > 100 µM (inactive) | > 100 µM (inactive) | > 100 µM (inactive) | > 100 µM (inactive) | > 100 µM (inactive) | > 100 µM (inactive) | > 100 µM (inactive) | > 100 µM (inactive) | > 100 µM (inactive) | > 100 µM (inactive) | > 100 µM (inactive) | > 100 µM (inactive) | > 100 µM (inactive) | > 100 µM (inactive) | > 100 µM (inactive) | > 100 µM | > 100 µM (inactive) | > 100 µM (inactive) | > 100 µM (inactive) |
| Brc1cccc(/N=N/N2CCCC2)c1 | > 100 µM (inactive) | 71.8 µM (inactive) | > 100 µM (inactive) | 65.5 µM (inactive) | > 100 µM (inactive) | > 100 µM (inactive) | > 100 µM (inactive) | > 100 µM (inactive) | > 100 µM (inactive) | 48.9 µM (inactive) | > 100 µM (inactive) | 67.9 µM (inactive) | 56.1 µM (inactive) | 66.2 µM (inactive) | > 100 µM (inactive) | 49.4 µM | > 100 µM (inactive) | > 100 µM (inactive) | > 100 µM (inactive) |

Source: ChEMBL document CHEMBL1201862, “PubChem BioAssay data set” (2004)
